Data taken from patent US8853172B2, “Anti-plant-virus agent” (National University Corporation Hokkaido University, priority 2009, dated 2014).

Key:
Assay type in all cases: in vivo
[1] = system: Turnip mosaic virus; experiment: Experiment II: preventive test, spraying before inoculation of Arabidopsis thaliana with Turnip mosaic virus (inoculation solution C); settings: for columns that showed symptoms / columns that were healthy: Arabidopsis thaliana (Columbia), ten columns inoculated, 20 mM sprayed on the 3rd and 1st day before inoculation, observed on the 16th day
Protocol: The frozen tobacco leaves infected with Turnip mosaic virus were triturated in 0.1M phosphate-buffer solution at a 10-fold amount (containing 10 mM DIECA). Then, this was diluted 50 times with the same buffer solution. This was defined as virus inoculation solution C.
(§1) Two expanded leaves per one column of Arabidopsis thaliana (Columbia) were inoculated with the virus via the aforementioned virus inoculation solution C by the carborundum method.
On the 3rd day and the 1st day prior to the date of the virus inoculation, an aqueous solution of 0.1% a spreading agent (Approach BI: manufactured by Kao Corporation) was sprayed thereon.
On the 16th day after the date of the virus inoculation, the presence or absence of disease symptoms such as yellow mosaic of new leaves, leaf curling, and plant stunting was observed.
Each was dissolved in water so as to be 20 mM ascorbic acid and 0.1% of a spreading agent (Approach BI: manufactured by Kao Corporation), thereby obtaining an aqueous solution of ascorbic acid. Except that the aqueous solution of ascorbic acid was sprayed onto Arabidopsis thaliana instead of the aqueous solution of the spreading agent, in the same manner as Comparative Example 3, Turnip mosaic virus was inoculated onto Arabidopsis thaliana, and then the onset of symptoms was examined.

[2] = system: Turnip mosaic virus; experiment: Experiment III: therapeutic test, spraying after inoculation of Arabidopsis thaliana with Turnip mosaic virus (inoculation solution C); settings: Arabidopsis thaliana (Columbia), ten columns inoculated, 20 mM sprayed on days 1, 4, 7 and 10 after inoculation, observed on the 16th day
Protocol: A nonionic surfactant (polyoxyethylene sorbitan monolaurate) and a spreading agent (Approach BI: manufactured by Kao Corporation) were dissolved in N,N-dimethylformamide. This solution was added to water to obtain an aqueous solution comprising 0.05% of a nonionic surfactant, 0.1% of a spreading agent, and 1% of N,N-dimethylformamide.
as §1
On the 1st day, the 4th day, the 7th day and the 10th day after the date of the virus inoculation, the aforementioned aqueous solution was sprayed thereon.
On the 16th day after the date of the virus inoculation, the presence or absence of disease symptoms such as yellow mosaic of new leaves, leaf curling, plant stunting was observed.
(§2) Ascorbic acid 6-palmitate, a nonionic surfactant (polyoxyethylene sorbitan monolaurate) and a spreading agent (Approach BI: manufactured by Kao Corporation) were dissolved in N,N-dimethylformamide. This solution was added to water to obtain an aqueous solution of the anti-plant virus agent comprising 20 mM ascorbic acid 6-palmitate, 0.05% of a nonionic surfactant, 0.1% of a spreading agent, and 1% of N,N-dimethylformamide.
Except that the aqueous solution of the anti-plant virus agent was sprayed onto Arabidopsis thaliana instead of the aforementioned aqueous solution, in the same manner as Comparative Example 6, Turnip mosaic virus was inoculated onto Arabidopsis thaliana, and then the onset of the symptoms was examined.

[3] = system: Turnip mosaic virus; experiment: Experiment I: spraying before and after inoculation of Arabidopsis thaliana with Turnip mosaic virus (inoculation solution A), onset of symptoms; settings: for columns that showed symptoms / columns that were healthy: Arabidopsis thaliana (Columbia), seven columns inoculated, 20 mM sprayed on days 3 and 1 before and 1, 3, 5, 8, 10 after inoculation, observed on the 14th day
Protocol: (§3) Each of the frozen tobacco leaves infected with Turnip mosaic virus and Cucumber mosaic virus (Y strain) was triturated in 0.1M phosphate-buffer solution at a 10-fold amount (containing 10 mM diethyldithiocarbamic acid (DIECA)). These were defined as virus inoculation solutions A and B. These virus inoculation solutions A and B are solutions causing a 100% incidence.
(§4) Three expanded leaves per one column of Arabidopsis thaliana (Columbia) were inoculated with each virus via the aforementioned virus inoculation solutions A and B by the carborundum method.
(§5) On the 3rd day and the 1st day prior to the date of the virus inoculation, and on the 1st day, the 3rd day, the 5th day, the 8th day and the 10th days after the date of the virus inoculation, an aqueous solution of 0.1% of a spreading agent (Approach BI: manufactured by Kao Corporation) was sprayed thereon.
(§6) On the 14th day after the virus inoculation, the presence or absence of disease symptoms such as yellow mosaic of new leaves, leaf curling, and plant stunting was observed. […] It can be seen that the above virus inoculation solutions A and B are strong solutions in view of the fact that the inoculation with the solutions reliably causes the onset of symptoms.
(§7) Each was dissolved in water so as to be 20 mM ascorbic acid and 0.1% of a spreading agent (Approach BI: manufactured by Kao Corporation), thereby obtaining an aqueous solution of ascorbic acid. Except that the aqueous solution of ascorbic acid was sprayed onto Arabidopsis thaliana instead of the aqueous solution of the spreading agent, in the same manner as Comparative Example 1, Turnip mosaic virus and Cucumber mosaic virus (Y strain) were inoculated onto Arabidopsis thaliana, and then the onset of symptoms was examined.
as §2, with “of N,N-dimethylformamide. Except that the aqueous solution of the anti-plant virus agent was sprayed thereon instead of the aqueous solution of ascorbic acid, in the same manner as Comparative Example 2, Turnip mosaic virus and Cucumber mosaic virus (Y strain) were inoculated onto Arabidopsis thaliana, and then the onset of symptoms was examined.” for “of N,N-dimethylformamide.”
Each was added to water so as to be 20 mM ascorbic acid 2-phosphate ester 3-sodium and 0.1% of a spreading agent (Approach BI: manufactured by Kao Corporation), thereby obtaining an aqueous solution of the anti-plant virus agent. Except that the aqueous solution of the anti-plant virus agent was sprayed thereon instead of the aqueous solution of ascorbic acid, in the same manner as Comparative Example 2, Turnip mosaic virus was inoculated onto Arabidopsis thaliana, and then the onset of symptoms was examined.

[4] = system: Cucumber mosaic virus (Y strain); experiment: Experiment I: spraying before and after inoculation of Arabidopsis thaliana with Cucumber mosaic virus (Y strain) (inoculation solution B), onset of symptoms; settings: Arabidopsis thaliana (Columbia), seven columns inoculated, 20 mM sprayed on days 3 and 1 before and 1, 3, 5, 8, 10 after inoculation, observed on the 14th day
Protocol: as §3, §4, §5, §6, §7
Ascorbic acid 6-palmitate, a nonionic surfactant (polyoxyethylene sorbitan monolaurate) and a spreading agent (Approach BI: manufactured by Kao Corporation) were dissolved in N,N-dimethylformamide. […]

[5] = system: Tomato aspermy virus (V strain); experiment: Experiment IV: spraying of tomato (cultivar Beiju) inoculated with Tomato aspermy virus (V strain); settings: four columns inoculated, 2 mM sprayed every day for two weeks from inoculation, observed on the 30th day
Protocol: The frozen tobacco (Nicotiana benthamiana) infected with Tomato aspermy virus (V strain) was triturated in 0.1M phosphate-buffer solution at a 10-fold amount (containing 10 mM DIECA), and was filtered through a double gauze and the filtrate was defined as virus inoculation solution D. Onto fully expanded leaves of the seedling stage of tomato (cultivar: Beiju) after a period of two weeks from seeding, the virus inoculation solution D was inoculated by physical application via the carborundum method.
After the virus inoculation, as a result of examination of disease symptoms over time, mosaic or leaf curling could be recognized after the 5th day, and lethal necrosis symptoms were shown after the period of two weeks, and all of the five columns inoculated with Tomato aspermy virus (V strain) withered.
200 mM of ascorbic acid 6-palmitate was dissolved in N,N-dimethylformamide. This solution was diluted 100 times with distilled water to obtain an aqueous solution of the anti-plant virus agent comprising 2 mM ascorbic acid 6-palmitate and 1% of N,N-dimethylformamide. In the same manner as Comparative Example 7, the tomato was inoculated with tomato aspermy virus (V strain). During the two weeks from the date of virus inoculation, the aforementioned aqueous solution was sprayed thereon every day, and disease symptoms were examined over time. […]

SMILES	columns that showed symptoms [1]	columns that were healthy [1]	columns that showed symptoms [2]	columns that were healthy [2]	columns that showed symptoms [3]	further results
O=C1O[C@H]([C@@H](O)CO)C([O-])=C1O.[Na+] [sodium ascorbate]	three	seven				
CCCCCCCCCCCCCCCC(=O)OC[C@H](O)[C@H]1OC(=O)C(OC(=O)CCCCCCCCCCCCCCC)=C1O [ascorbic acid 2,6-dipalmitate]			one	nine		
CCCCCCCCCCCCCCCCCC(=O)OC[C@H](O)[C@H]1OC(=O)C(O)=C1O [ascorbic acid 6-stearate]			one	nine		
CCCCCCCCC(CCCCCC)C(=O)OCC(OC(=O)C(CCCCCC)CCCCCCCC)C1OC(=O)C(OC(=O)C(CCCCCC)CCCCCCCC)=C1OC(=O)C(CCCCCC)CCCCCCCC (stereo not drawn) [ascorbyl 2,3,5,6-tetrahexyldecanoate]			one	nine		
O=C1O[C@H]([C@@H](O)CO)C(O)=C1O[C@H]1O[C@H](CO)[C@@H](O)[C@H](O)[C@H]1O [ascorbic acid 2-glucoside]	one	nine				
O=C1O[C@H]([C@@H](O)CO)C([O-])=C1OP(=O)([O-])[O-].[Na+].[Na+].[Na+] [ascorbic acid 2-phosphate ester 3-sodium]		ten			five	columns that were healthy [3]: two
O=C1O[C@H]([C@@H](O)CO)C(O)=C1O [ascorbic acid, reference compound]	two	eight			seven	columns that showed symptoms [4]: seven; anti-plant viral activity (conclusion in words) ([3]; Experiment I, 20 mM spray): does not have any anti-plant viral activity; anti-plant viral activity / preventive effect (conclusion in words) ([1]; Experiment II, 20 mM sprayed before inoculation): do not have any anti-plant viral activity
CCCCCCCCCCCCCCCC(=O)OC[C@H](O)[C@H]1OC(=O)C(O)=C1O [ascorbic acid 6-palmitate]			one	nine	five	columns that showed symptoms [4]: five; columns that were healthy [4]: two; columns that were healthy [3]: two; columns that were healthy [5]: two; columns that withered [5]: two
